Experimental data as given in PubChem BioAssay (NCI).
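GI50 is the concentration that inhibits growth by half. TGI denotes the concentration required for complete inhibition of growth.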

Experiments:
Test in all cases: DTP human tumour cell line panel, 384-well format
786-0 renal = test system: 786-0 renal
A498 renal = test system: A498 renal
A549 NSCLC = test system: A549 NSCLC
ACHN renal = test system: ACHN renal
BT-549 breast = test system: BT-549 breast
CAKI-1 renal = test system: CAKI-1 renal
COLO 205 colon = test system: COLO 205 colon
DU-145 prostate = test system: DU-145 prostate
EKVX NSCLC = test system: EKVX NSCLC
HCC-2998 colon = test system: HCC-2998 colon
HCT-15 colon = test system: HCT-15 colon
HL-60(TB) leukemia = test system: HL-60(TB) leukemia
HOP-62 NSCLC = test system: HOP-62 NSCLC
HOP-92 NSCLC = test system: HOP-92 NSCLC
HS 578T breast = test system: HS 578T breast
HT29 colon = test system: HT29 colon
IGROV1 ovarian = test system: IGROV1 ovarian
K-562 leukemia = test system: K-562 leukemia
KM12 colon = test system: KM12 colon
LOX IMVI melanoma = test system: LOX IMVI melanoma
M14 melanoma = test system: M14 melanoma
MALME-3M melanoma = test system: MALME-3M melanoma
MCF7 breast = test system: MCF7 breast
MDA-MB-231 breast = test system: MDA-MB-231 breast
MDA-MB-435 melanoma = test system: MDA-MB-435 melanoma
MDA-MB-468 breast = test system: MDA-MB-468 breast
MOLT-4 leukemia = test system: MOLT-4 leukemia
NCI-H226 lung = test system: NCI-H226 lung
NCI-H23 lung = test system: NCI-H23 lung
NCI-H322M lung = test system: NCI-H322M lung
NCI-H460 NSCLC = test system: NCI-H460 NSCLC
NCI-H522 lung = test system: NCI-H522 lung
NCI/ADR-RES ovarian = test system: NCI/ADR-RES ovarian
OVCAR-3 ovarian = test system: OVCAR-3 ovarian
OVCAR-4 ovarian = test system: OVCAR-4 ovarian
OVCAR-5 ovarian = test system: OVCAR-5 ovarian
OVCAR-8 ovarian = test system: OVCAR-8 ovarian
PC-3 prostate = test system: PC-3 prostate
RPMI-8226 leukemia = test system: RPMI-8226 leukemia
RXF 393 renal = test system: RXF 393 renal
SF-268 CNS = test system: SF-268 CNS
SF-295 CNS = test system: SF-295 CNS
SF-539 CNS = test system: SF-539 CNS
SK-MEL-28 melanoma = test system: SK-MEL-28 melanoma
SK-MEL-5 melanoma = test system: SK-MEL-5 melanoma
SK-OV-3 ovarian = test system: SK-OV-3 ovarian
SN12C renal = test system: SN12C renal
SNB-19 CNS = test system: SNB-19 CNS
SNB-75 CNS = test system: SNB-75 CNS
SR leukemia = test system: SR leukemia
SW-620 colon = test system: SW-620 colon
T-47D breast = test system: T-47D breast
TK-10 renal = test system: TK-10 renal
UACC-257 melanoma = test system: UACC-257 melanoma
UACC-62 melanoma = test system: UACC-62 melanoma
UO-31 renal = test system: UO-31 renal

C=CC(=O)N1CC[C@H](n2nc(C#Cc3cc(OC)cc(OC)c3)c3c(N)ncnc32)C1
GI50 ([…]-0 renal): 2.96 µM
TGI (786-0 renal): 19.1 µM
GI50 (A498 renal): 2.73 µM
TGI (A498 renal): 18.2 µM
GI50 (A549 NSCLC): 12.7 µM
TGI (A549 NSCLC): > 100 µM
GI50 (ACHN renal): 6.8 µM
TGI (ACHN renal): 72.9 µM
GI50 (BT-549 breast): 1.51 µM
TGI (BT-549 breast): 12.2 µM
GI50 (CAKI-1 renal): 4.44 µM
TGI (CAKI-1 renal): > 100 µM
GI50 (COLO 205 colon): 30 µM
TGI (COLO 205 colon): > 100 µM
GI50 (DU-145 prostate): 9.04 µM
TGI (DU-145 prostate): > 100 µM
GI50 (EKVX NSCLC): 13.4 µM
TGI (EKVX NSCLC): 98.9 µM
GI50 (HCC-2998 colon): 2.98 µM
TGI (HCC-2998 colon): 11 µM
GI50 (HCT-15 colon): 4.46 µM
TGI (HCT-15 colon): 25.6 µM
GI50 (HL-60(TB) leukemia): 4.6 µM
TGI (HL-60(TB) leukemia): 16 µM
GI50 (HOP-62 NSCLC): 6.44 µM
TGI (HOP-62 NSCLC): > 100 µM
GI50 (HOP-92 NSCLC): 2.52 µM
TGI (HOP-92 NSCLC): 14.2 µM
GI50 (HS 578T breast): 2.74 µM
TGI (HS 578T breast): 11.5 µM
GI50 (HT29 colon): 17.5 µM
TGI (HT29 colon): > 100 µM
GI50 (IGROV1 ovarian): 4.93 µM
TGI (IGROV1 ovarian): 20.7 µM
GI50 (K-562 leukemia): 12 µM
TGI (K-562 leukemia): > 100 µM
GI50 (KM12 colon): 10.2 µM
TGI (KM12 colon): 42.1 µM
GI50 (LOX IMVI melanoma): 6.09 µM
TGI (LOX IMVI melanoma): 22.1 µM
GI50 (M14 melanoma): 16.9 µM
TGI (M14 melanoma): 69.8 µM
GI50 (MALME-3M melanoma): 7.39 µM
TGI (MALME-3M melanoma): 31.4 µM
GI50 (MCF7 breast): 4.34 µM
TGI (MCF7 breast): > 100 µM
GI50 (MDA-MB-231 breast): 4.03 µM
TGI (MDA-MB-231 breast): 68.2 µM
GI50 (MDA-MB-435 melanoma): 31.1 µM
TGI (MDA-MB-435 melanoma): > 100 µM
GI50 (MDA-MB-468 breast): 2.09 µM
TGI (MDA-MB-468 breast): 4.53 µM
GI50 (MOLT-4 leukemia): 2.47 µM
TGI (MOLT-4 leukemia): 5.06 µM
GI50 (NCI-H226 lung): 12.7 µM
TGI (NCI-H226 lung): > 100 µM
GI50 (NCI-H23 lung): 10.5 µM
TGI (NCI-H23 lung): 28.6 µM
GI50 (NCI-H322M lung): 11.5 µM
TGI (NCI-H322M lung): > 100 µM
GI50 (NCI-H460 NSCLC): 12 µM
TGI (NCI-H460 NSCLC): > 100 µM
GI50 (NCI-H522 lung): 4.39 µM
TGI (NCI-H522 lung): 14.2 µM
GI50 (NCI/ADR-RES ovarian): 11.1 µM
TGI (NCI/ADR-RES ovarian): 44.3 µM
GI50 (OVCAR-3 ovarian): 3.45 µM
TGI (OVCAR-3 ovarian): 17.6 µM
GI50 (OVCAR-4 ovarian): 2.02 µM
TGI (OVCAR-4 ovarian): 25.6 µM
GI50 (OVCAR-5 ovarian): 49.4 µM
TGI (OVCAR-5 ovarian): > 100 µM
GI50 (OVCAR-8 ovarian): 15.9 µM
TGI (OVCAR-8 ovarian): 72.3 µM
GI50 (PC-3 prostate): 20.1 µM
TGI (PC-3 prostate): > 100 µM
GI50 (RPMI-8226 leukemia): 1.53 µM
TGI (RPMI-8226 leukemia): 4.41 µM
GI50 (RXF 393 renal): 6.72 µM
TGI (RXF 393 renal): 66.4 µM
GI50 (SF-268 CNS): 9.33 µM
TGI (SF-268 CNS): 75 µM
GI50 (SF-295 CNS): 25.5 µM
TGI (SF-295 CNS): > 100 µM
GI50 (SF-539 CNS): 4.52 µM
TGI (SF-539 CNS): 20.6 µM
GI50 (SK-MEL-28 melanoma): 17.7 µM
TGI (SK-MEL-28 melanoma): 91.2 µM
GI50 (SK-MEL-5 melanoma): 5.05 µM
TGI (SK-MEL-5 melanoma): 18.9 µM
GI50 (SK-OV-3 ovarian): 5.24 µM
TGI (SK-OV-3 ovarian): 41.5 µM
GI50 (SN12C renal): 3.64 µM
TGI (SN12C renal): 33.9 µM
GI50 (SNB-19 CNS): 12.6 µM
TGI (SNB-19 CNS): > 100 µM
GI50 (SNB-75 CNS): 1.44 µM
TGI (SNB-75 CNS): 10.7 µM
GI50 (SR leukemia): 3.11 µM
TGI (SR leukemia): 13 µM
GI50 (SW-620 colon): 13.2 µM
TGI (SW-620 colon): 32.6 µM
GI50 (T-47D breast): 3.29 µM
TGI (T-47D breast): 52.6 µM
GI50 (TK-10 renal): 5.66 µM
TGI (TK-10 renal): 71.7 µM
GI50 (UACC-257 melanoma): 2.86 µM
TGI (UACC-257 melanoma): 8.35 µM
GI50 (UACC-62 melanoma): 5.78 µM
TGI (UACC-62 melanoma): 30.5 µM
GI50 (UO-31 renal): 17.6 µM
TGI (UO-31 renal): > 100 µM
